Data as given in patent US20260176228A1, “MODULATORS OF LIVER RECEPTOR HOMOLOGUE 1 (LRH-1) AND USES” (Emory University, priority 2022, published 2026).

How the values were obtained:
LRH-1 LBD [1] = target: T1, LRH-1 LBD (Homo sapiens, UniProt O00482); experiment: FP competition (binding) assay; conditions: interval in brackets in the cell
T1 construct: LRH-1 LBD (residues 299-541) in the pMSC7 vector; His tag; made in house; host or cells: BL21 (DE3) pLysS E. coli

LRH-1 = target: T2, LRH-1 (Homo sapiens, UniProt O00482); experiment: Luciferase reporter (activation) assay in HeLa cells transfected with full-length LRH-1 and SHP-luc reporter; format: cell-based; conditions: 24 hours treatment, interval in brackets in the cell
T2 construct: The transfected plasmids included full-length LRH-1 in a pCI vector (5 ng/well); expressed in transfected cells; host or cells: HeLa cells
T2 sequence (O00482 whole entry): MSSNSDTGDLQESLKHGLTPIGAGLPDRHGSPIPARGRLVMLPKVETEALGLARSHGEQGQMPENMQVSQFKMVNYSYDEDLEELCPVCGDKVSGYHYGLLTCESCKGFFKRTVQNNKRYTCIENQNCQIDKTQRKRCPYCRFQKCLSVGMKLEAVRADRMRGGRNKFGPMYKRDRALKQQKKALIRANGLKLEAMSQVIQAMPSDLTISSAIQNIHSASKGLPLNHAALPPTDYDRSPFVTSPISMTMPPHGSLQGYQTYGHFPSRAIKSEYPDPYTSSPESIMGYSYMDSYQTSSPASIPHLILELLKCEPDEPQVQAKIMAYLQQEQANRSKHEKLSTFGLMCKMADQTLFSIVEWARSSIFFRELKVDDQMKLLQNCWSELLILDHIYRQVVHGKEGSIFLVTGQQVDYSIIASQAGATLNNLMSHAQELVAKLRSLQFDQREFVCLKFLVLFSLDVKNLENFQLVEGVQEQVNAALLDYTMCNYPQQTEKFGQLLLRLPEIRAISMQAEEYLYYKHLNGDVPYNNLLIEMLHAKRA
Protocol: HeLa cells were seeded at a density of 10,000 cells per well in white-walled, clear-bottomed 96-well culture plates. The next day, cells were transfected with LRH-1 and reporters, using Fugene™ HD (Roche; Indianapolis, IN) at a ratio of 5:2 Fugene™ (μl): DNA (μg). The transfected plasmids included full-length LRH-1 in a pCI vector (5 ng/well), and a SHP-luc reporter, encoding the LRH-1 response element and surrounding sequence from the SHP promoter cloned upstream of firefly luciferase in the pGL3 basic vector (50 ng/well). Cells were also co-transfected with a constitutive Renilla luciferase reporter (utilizing the CMV promoter), which was used for normalization of firefly signal (1 ng/well). Control cells received pCI empty vector at 5 ng/well in place of LRH-1-pCI. Agonists were dissolved in DMSO and then diluted into media, with a final concentration of 0.3% DMSO in all wells. Luciferase signal was quantified using the DualGlo™ kit (Promega; Madison, WI). Experiments were conducted at least two times in triplicate. Compounds were synthesized and evaluated in biological assays.

LRH-1 LBD [2] = target: T1, LRH-1 LBD; experiment: Thermal stability assay (Tycho NT.6) of LRH-1 LBD complexed with ligands; format: binding; conditions: LRH-1 LBD with 5-fold molar excess of ligand; for Inflection Point (Thermal Stability), shift in parentheses: value in parentheses
Protocol: Thermal shift was also assessed for each of the compounds to determine the protein thermal stability. Thermal stability of the LRH-1 LBD complexed with ligands was determined using a Tycho NT.6 Nanotemper. The LRH-1 LBD was incubated with 5-fold molar excess of ligand (final DMSO concentration was 1.4%) overnight at 4° C. in assay buffer (150 mM NaCl, 20 mM Tris-HCl, and 5% glycerol (pH 7.4)). Complexes were centrifuged at high speed for five minutes and then loaded into capillaries. Tryptophan/tyrosine fluorescence was monitored at wavelengths of 330 nm and 350 nm over a 30° C./min gradient (35° C.-95° C.). The inflection point was determined with Tycho NT.6 software. Two separate experiments were conducted in triplicate.

SF-1 = SF-1 (Homo sapiens, UniProt Q13285); experiment: SF-1 LUC-reporter gene activation in cultured cells; format: cell-based
Sequence of SF-1 (Q13285 whole entry): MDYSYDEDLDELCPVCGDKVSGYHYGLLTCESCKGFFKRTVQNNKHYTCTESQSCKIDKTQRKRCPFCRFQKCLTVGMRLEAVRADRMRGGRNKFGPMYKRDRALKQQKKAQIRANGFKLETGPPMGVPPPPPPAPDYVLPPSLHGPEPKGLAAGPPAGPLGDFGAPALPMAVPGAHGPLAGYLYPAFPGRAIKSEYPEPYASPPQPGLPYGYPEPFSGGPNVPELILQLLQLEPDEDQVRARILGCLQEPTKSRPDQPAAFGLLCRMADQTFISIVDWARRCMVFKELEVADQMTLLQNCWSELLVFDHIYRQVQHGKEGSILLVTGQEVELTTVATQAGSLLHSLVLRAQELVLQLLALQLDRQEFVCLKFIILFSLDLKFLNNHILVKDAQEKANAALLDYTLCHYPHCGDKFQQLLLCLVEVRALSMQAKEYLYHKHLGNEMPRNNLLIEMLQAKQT

hepatic LRH-1 = experiment: Liver target gene expression in H-mLRH-1 mice (RNA-seq, RT-qPCR); format: in vivo; conditions: 30 mg/Kg IP injection
Protocol: FIGS. 2A, 2B, and 2C show the target gene expression driven by 6N-10CA-ME. FIG. 2A is a Volcano Plot showing RNA-seq of H-mLRH-1 mice treated with 3 mg/Kg of 6N-10CA-ME via an intraperitoneal injection. FIG. 2B is a Volcano Plot showing RNA-seq of H-mLRH-1 mice treated with 30 mg/Kg of 6N-10CA-ME via an intraperitoneal injection. FIG. 2C is a RT-qPCR showing target gene expression at 3 and 30 mg/kg doses.
The tissue distribution of compounds as described herein and the dosage needed for the in vivo activation of hepatic LRH-1 were evaluated. For these studies, H-mLRH-1 mice (male and female; 10 weeks of age) were used. A single dose time course experiment was conducted in which different cohorts of H-mLRH-1 mice (n=6) were given a high dose (i.e., 30 mg/kg compound) via oral and intraperitoneal (IP) delivery. Liver tissue was harvested and the gene expression of Cyp7a1, Scarb1, ApoA4, and Shp was measured using standard qPCR methods at 1, 3, 6, 12, and 24 hrs. The time of peak target gene expression for a dose finding study was selected. Different cohorts of H-mLRH-1 mice were given 6 doses of the compounds using a half-log scale (i.e., 0, 0.003, 0.03, 0.3, 3, and 30 mg/kg) via oral or IP delivery. Collected liver tissue was used to monitor the expression of the genes listed above.

[3] = test system: other nuclear receptors (NRs); experiment: Nuclear receptor cross-reactivity in reporter cells; format: cell-based; conditions: 2 μM in reporter cells; normalized to reference agonist for each receptor
Protocol: 6N-10CA-ME was introduced to reporter cells at 2 μM and the activity of respective NRs was tested. Data are normalized relative to activity induced by the appropriate reference agonist for each receptor.
SF-1 activity was assessed using RT-qPCR for target genes (e.g., Star, Fdps, Hmgcr), though morphological/histological examination of these organs and by monitoring circulating levels of cortisol, aldosterone and androsterone using targeted LC/MS/MS.

[4] = test system: H-mLRH-1 mice with diet-induced obesity; experiment: Diet-induced obesity (HFD) model, glucose tolerance; format: in vivo; conditions: HFD (60% fat) mice, 3 mg/kg, intraperitoneal daily from 12 to 16 weeks of HFD
Protocol: Male and female mice were treated with 6N-10CA-ME via an intraperitoneal injection starting at 12 weeks of High Fat Diet (HFD; 60% fat) feeding and continuing daily to 16 weeks of HFD feeding. (Panel A) Summary of body weights of mice in each group at 0, 12, and 16 weeks of HFD feeding. (Panels B and C) Fasting blood glucose (mg/dL) levels of mice in each group at 12 and 16 weeks of HFD feeding. (Panel D) Glucose tolerance tests (GTT) following administration of glucose (2 g/kg) at 12 and 16 weeks of HFD feeding. (Panel E) Area under the curve (AUC) summary of GTT at 12 and 16 weeks of HFD feeding. Data are represented as means+/−SEM. Sample size is 6-17 per group. **** p<0.0001 vs. chow. Data were analyzed with a two-way ANOVA with Tukey multiple comparison test.
In this study, a mouse model of DIO was used to evaluate the in vivo efficacy of the compounds as described herein, including the ability of the compounds to (1) attenuate hepatic steatosis and (2) improve glucose tolerance and insulin resistance.
H-mLRH-1 mice (male and female) were fed one of the following diets (OpenSource Diets) for 16 weeks starting at 8 weeks of age: (1) Control Diet (10% fat diet, D12450Ji) or (2) High Fat Diet (HFD, 60% fat; D12492i). […]

diabetic mice = diabetic mice fed DLPC; Lee et al. Nature 2011; cited from earlier work

T1 sequence (O00482 299-541): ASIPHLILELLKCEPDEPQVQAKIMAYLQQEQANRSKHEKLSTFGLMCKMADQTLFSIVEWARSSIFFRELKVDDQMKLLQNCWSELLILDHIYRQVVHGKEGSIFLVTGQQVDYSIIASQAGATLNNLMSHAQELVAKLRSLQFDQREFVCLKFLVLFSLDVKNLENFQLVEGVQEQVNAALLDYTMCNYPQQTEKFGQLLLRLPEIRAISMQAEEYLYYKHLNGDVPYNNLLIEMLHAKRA

SMILES	Ki (LRH-1 LBD [1]) [µM]	EC50 (LRH-1) [µM]	Inflection Point (Thermal Stability) (LRH-1 LBD [2]) [°C]	Inflection Point (Thermal Stability), shift in parentheses (LRH-1 LBD [2])	SF-1 activity (LUC-reporter gene activation) (SF-1)	Liver target gene expression (hepatic LRH-1)	Cross-reactivity with other nuclear receptors [3]	Glucose intolerance [4]	Glucose tolerance and hepatic fat accumulation (diabetic mice)
C=C(c1ccccc1)C12CCC(NS(N)(=O)=O)C1CC(CCOCCCOCCC(=O)O)=C2c1ccccc1 (stereo not drawn) [Compound 6N-10CA-DE, 3-(3-(2-(3-phenyl-3a-(1-phenylvinyl)-6-(sulfamoylamino)-1,3a,4,5,6,6a-hexahydropentalen-2-yl)ethoxy)propoxy) propanoic acid]	0.48	1.2	61	+5.9 °C					
C=C(c1ccccc1)C12CCC(NS(N)(=O)=O)C1CC(CCCCOCCCCC(=O)O)=C2c1ccccc1 (stereo not drawn) [Compound 6N-10CA-ME, 5-(4-(3-phenyl-3a-(1-phenylvinyl)-6-(sulfamoylamino)-1,3a,4,5,6,6a-hexahydropentalen-2-yl)butoxy) pentanoic acid]	0.012	0.05	65	+9.9 °C	displays SF-1 activity	elevation of Cyp7a1 and Apoa4 and a reduction in Fasn	minimal cross-reactivity	reduces glucose intolerance	
C=C(c1ccccc1)C12CCC(O)C1CC(CCOCCCOCCC(=O)O)=C2c1ccccc1 (stereo not drawn) [Compound 10CA-DE, 3-(3-(2-(6-hydroxy-3-phenyl-3a-(1-phenylvinyl)-1,3a,4,5,6,6a-hexahydropentalen-2-yl)ethoxy)propoxy) propanoic acid]	10	3.2	57	+1.9 °C					
C=C(c1ccccc1)C12CCC(O)C1CC(CCCCOCCCCC(=O)O)=C2c1ccccc1 (stereo not drawn) [Compound 10CA-ME, 5-(4-(6-hydroxy-3-phenyl-3a-(1-phenylvinyl)-1,3a,4,5,6,6a-hexahydropentalen-2-yl)butoxy) pentanoic acid]	0.11	0.87	59	+3.9 °C					
CCCCCCCCCCCC(=O)OC[C@H](COP(=O)([O-])OCC[N+](C)(C)C)OC(=O)CCCCCCCCCCC [DLPC, dilauroyl-phosphatidylcholine]									improved glucose tolerance and reduced hepatic fat accumulation
